Results as given in patent publication US20230117777A1, “METHYLATION OF MCL-1 COMPOUNDS” (Amgen Inc., priority 2020, published 2023).

Test: Moisture sorption profile (DVS)
Assay type: physicochemical
Details: by 95% RH; FIG. 6
Experimental: Moisture Sorption: Moisture sorption data was collected using a Surface Measurement Systems DVSAdvantage instrument. Equilibrium criteria were set at ±0.001% weight change in 10 minutes with a maximum equilibrium time of 360 minutes.

CO[C@]1(CN2CCN3CCCC[C@@H]3C2)/C=C/C[C@H](C)[C@@H](C)S(=O)(=O)NC(=O)c2ccc3c(c2)N(C[C@@H]2CC[C@H]21)C[C@@]1(CCCc2cc(Cl)ccc21)CO3 [crystalline hydrate form of compound A]
weight gain (moisture sorption profile): 3.3%
